Test results taken from publication PMC3961306, “Comparison of the Cancer Gene Targeting and Biochemical Selectivities of All Targeted Kinase Inhibitors Approved for Clinical Use” (PLoS ONE, 2014).

Assays:
Test in all cases: Kinase profiling in a biochemical assay panel (mobility shift assays and ELISA), %-inhibition at 1 μM; selectivity entropy
[1] = biological target: T1, panel of more than 300 wild-type and mutant kinases (313 kinase panel) (Homo sapiens, UniProt Q9BXA7); conditions: kinase TSSK1; 1 μM
T1 sequence (Q9BXA7 1-367): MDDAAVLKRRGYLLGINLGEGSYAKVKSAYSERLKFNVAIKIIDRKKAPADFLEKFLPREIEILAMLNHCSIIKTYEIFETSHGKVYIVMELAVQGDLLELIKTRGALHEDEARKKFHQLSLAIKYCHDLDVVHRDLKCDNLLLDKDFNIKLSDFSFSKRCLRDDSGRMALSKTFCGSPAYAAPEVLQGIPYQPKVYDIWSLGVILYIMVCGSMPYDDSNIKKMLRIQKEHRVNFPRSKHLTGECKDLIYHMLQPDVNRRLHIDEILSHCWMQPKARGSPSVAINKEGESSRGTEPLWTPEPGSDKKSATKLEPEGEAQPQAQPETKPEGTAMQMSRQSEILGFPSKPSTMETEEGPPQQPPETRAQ

[2] = biological target: panel of more than 300 wild-type and mutant kinases (313 kinase panel) (Homo sapiens, UniProt O95819); conditions: kinase HGK; compound at 1 μM
[3] = biological target: panel of more than 300 wild-type and mutant kinases (313 kinase panel) (Homo sapiens, UniProt P05771); conditions: kinase PKCβ1; 1 μM
[4] = biological target: panel of more than 300 wild-type and mutant kinases (313 kinase panel) (Homo sapiens, UniProt Q16539); conditions: kinase p38α; 1 μM
[5] = biological target: panel of more than 300 wild-type and mutant kinases (313 kinase panel) (Homo sapiens, UniProt P30291); conditions: kinase WEE1; compound at 1 μM
[6] = biological target: panel of more than 300 wild-type and mutant kinases (313 kinase panel) (Homo sapiens, UniProt P04626); conditions: kinase HER2; compound at 1 μM
[7] = biological target: T2, panel of more than 300 wild-type and mutant kinases (313 kinase panel) (Homo sapiens, UniProt Q96KB5); conditions: kinase PBK; 1 μM
T2 sequence (Q96KB5 1-322): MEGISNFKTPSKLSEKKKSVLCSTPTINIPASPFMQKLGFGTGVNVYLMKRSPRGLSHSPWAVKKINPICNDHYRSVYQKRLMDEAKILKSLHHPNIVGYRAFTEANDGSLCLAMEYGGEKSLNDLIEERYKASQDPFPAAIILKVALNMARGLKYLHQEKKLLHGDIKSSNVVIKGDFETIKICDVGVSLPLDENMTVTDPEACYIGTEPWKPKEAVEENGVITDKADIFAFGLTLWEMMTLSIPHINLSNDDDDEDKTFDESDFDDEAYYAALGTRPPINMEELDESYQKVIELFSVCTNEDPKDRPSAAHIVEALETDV

[8] = biological target: panel of more than 300 wild-type and mutant kinases (313 kinase panel) (Homo sapiens, UniProt Q8IU85); conditions: kinase CaMK1δ; 1 μM compound
[9] = biological target: panel of more than 300 wild-type and mutant kinases (313 kinase panel) (Homo sapiens, UniProt Q86V86); conditions: kinase PIM3; 1 μM
[10] = biological target: panel of more than 300 wild-type and mutant kinases (313 kinase panel) (Homo sapiens, UniProt Q16654); conditions: kinase PDHK4; 1 μM
[11] = biological target: T3, panel of more than 300 wild-type and mutant kinases (313 kinase panel) (Homo sapiens, UniProt Q96PF2); conditions: kinase TSSK2; 1 μM
T3 sequence (Q96PF2 1-358): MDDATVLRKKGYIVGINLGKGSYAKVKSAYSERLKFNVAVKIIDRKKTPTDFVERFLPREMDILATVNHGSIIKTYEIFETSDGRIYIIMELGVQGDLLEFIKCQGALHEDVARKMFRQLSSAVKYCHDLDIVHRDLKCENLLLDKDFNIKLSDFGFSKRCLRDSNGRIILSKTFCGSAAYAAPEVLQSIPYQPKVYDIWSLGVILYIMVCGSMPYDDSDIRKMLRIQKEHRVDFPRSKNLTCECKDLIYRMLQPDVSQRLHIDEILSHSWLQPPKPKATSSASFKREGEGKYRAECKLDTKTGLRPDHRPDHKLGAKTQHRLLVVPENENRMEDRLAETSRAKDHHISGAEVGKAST

[12] = biological target: panel of more than 300 wild-type and mutant kinases (313 kinase panel) (Homo sapiens, UniProt Q13627); conditions: kinase DYRK1A; compound at 1 μM
[13] = biological target: panel of more than 300 wild-type and mutant kinases (313 kinase panel) (Homo sapiens, UniProt P45983); conditions: kinase JNK1; compound at 1 μM
[14] = biological target: panel of more than 300 wild-type and mutant kinases (313 kinase panel) (Homo sapiens, UniProt Q00535); conditions: kinase CDK5/p25; 1 μM compound
[15] = biological target: panel of more than 300 wild-type and mutant kinases (313 kinase panel) (Homo sapiens, UniProt P16591); conditions: kinase FER; compound at 1 μM
panel of more than 300 wild-type and mutant kinases (313 kinase panel) (Homo sapiens, UniProt P16591), sequence (P16591 whole entry, change not shown): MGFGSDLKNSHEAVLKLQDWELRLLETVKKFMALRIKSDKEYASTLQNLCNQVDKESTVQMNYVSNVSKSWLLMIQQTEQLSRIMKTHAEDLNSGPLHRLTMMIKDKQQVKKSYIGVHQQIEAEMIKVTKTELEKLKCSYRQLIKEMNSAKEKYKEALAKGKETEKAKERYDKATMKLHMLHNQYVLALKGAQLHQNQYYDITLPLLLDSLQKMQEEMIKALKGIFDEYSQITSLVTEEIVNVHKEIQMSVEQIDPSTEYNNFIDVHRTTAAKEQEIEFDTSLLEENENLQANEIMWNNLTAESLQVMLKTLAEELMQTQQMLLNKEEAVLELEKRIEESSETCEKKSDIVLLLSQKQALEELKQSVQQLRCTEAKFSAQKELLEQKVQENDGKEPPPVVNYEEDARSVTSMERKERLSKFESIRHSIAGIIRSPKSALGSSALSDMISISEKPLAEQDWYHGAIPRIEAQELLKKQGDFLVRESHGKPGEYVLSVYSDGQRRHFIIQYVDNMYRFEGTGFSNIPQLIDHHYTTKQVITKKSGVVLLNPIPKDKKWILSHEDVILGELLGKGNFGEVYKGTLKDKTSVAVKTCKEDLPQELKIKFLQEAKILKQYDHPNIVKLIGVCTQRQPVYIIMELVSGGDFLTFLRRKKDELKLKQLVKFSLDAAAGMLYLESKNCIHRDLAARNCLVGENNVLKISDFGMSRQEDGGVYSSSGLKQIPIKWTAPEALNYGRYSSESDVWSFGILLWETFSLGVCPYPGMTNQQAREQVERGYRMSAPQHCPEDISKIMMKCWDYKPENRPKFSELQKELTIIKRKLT

panel of more than 300 wild-type and mutant kinases (313 kinase panel) (Homo sapiens, UniProt Q00535), sequence (Q00535 whole entry, change not shown): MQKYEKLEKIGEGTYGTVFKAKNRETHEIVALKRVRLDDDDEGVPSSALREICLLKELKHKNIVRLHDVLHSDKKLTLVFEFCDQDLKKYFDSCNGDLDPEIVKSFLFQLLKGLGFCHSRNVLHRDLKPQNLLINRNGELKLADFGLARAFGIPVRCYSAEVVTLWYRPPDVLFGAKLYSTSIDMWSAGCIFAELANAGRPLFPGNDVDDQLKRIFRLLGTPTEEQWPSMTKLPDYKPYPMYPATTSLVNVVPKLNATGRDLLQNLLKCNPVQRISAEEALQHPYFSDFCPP
panel of more than 300 wild-type and mutant kinases (313 kinase panel) (Homo sapiens, UniProt P04626), sequence (P04626 23-1255, change not shown): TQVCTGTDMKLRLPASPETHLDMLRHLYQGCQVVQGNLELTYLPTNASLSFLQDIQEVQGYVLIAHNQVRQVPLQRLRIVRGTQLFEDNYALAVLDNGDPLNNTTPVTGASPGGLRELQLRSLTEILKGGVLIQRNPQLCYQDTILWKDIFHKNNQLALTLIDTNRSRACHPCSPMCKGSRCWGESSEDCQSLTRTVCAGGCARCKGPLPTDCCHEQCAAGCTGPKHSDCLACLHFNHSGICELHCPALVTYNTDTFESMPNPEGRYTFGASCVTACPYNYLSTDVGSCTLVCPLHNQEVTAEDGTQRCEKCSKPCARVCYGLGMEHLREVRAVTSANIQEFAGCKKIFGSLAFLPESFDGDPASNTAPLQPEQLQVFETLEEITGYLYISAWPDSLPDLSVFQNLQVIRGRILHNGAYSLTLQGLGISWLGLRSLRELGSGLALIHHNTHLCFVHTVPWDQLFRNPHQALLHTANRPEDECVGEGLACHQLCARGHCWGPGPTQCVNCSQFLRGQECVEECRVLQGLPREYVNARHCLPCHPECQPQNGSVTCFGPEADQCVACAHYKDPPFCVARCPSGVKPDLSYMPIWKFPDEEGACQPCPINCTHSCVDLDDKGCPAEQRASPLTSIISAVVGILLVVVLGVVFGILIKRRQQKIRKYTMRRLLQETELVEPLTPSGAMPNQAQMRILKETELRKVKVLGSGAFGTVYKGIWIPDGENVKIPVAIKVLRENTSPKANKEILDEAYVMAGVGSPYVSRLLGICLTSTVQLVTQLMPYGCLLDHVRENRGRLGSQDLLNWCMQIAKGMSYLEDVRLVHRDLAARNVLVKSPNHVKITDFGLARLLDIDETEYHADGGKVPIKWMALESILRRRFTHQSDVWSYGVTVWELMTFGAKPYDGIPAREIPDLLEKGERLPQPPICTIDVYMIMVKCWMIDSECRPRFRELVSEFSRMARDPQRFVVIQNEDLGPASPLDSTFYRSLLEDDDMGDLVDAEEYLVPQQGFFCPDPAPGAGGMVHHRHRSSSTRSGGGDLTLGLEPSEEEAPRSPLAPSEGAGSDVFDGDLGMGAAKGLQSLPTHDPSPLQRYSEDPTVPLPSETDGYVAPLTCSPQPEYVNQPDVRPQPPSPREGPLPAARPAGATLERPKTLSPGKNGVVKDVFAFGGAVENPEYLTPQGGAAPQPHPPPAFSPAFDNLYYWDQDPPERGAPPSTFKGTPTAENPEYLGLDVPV
panel of more than 300 wild-type and mutant kinases (313 kinase panel) (Homo sapiens, UniProt P45983), sequence (P45983 whole entry, change not shown): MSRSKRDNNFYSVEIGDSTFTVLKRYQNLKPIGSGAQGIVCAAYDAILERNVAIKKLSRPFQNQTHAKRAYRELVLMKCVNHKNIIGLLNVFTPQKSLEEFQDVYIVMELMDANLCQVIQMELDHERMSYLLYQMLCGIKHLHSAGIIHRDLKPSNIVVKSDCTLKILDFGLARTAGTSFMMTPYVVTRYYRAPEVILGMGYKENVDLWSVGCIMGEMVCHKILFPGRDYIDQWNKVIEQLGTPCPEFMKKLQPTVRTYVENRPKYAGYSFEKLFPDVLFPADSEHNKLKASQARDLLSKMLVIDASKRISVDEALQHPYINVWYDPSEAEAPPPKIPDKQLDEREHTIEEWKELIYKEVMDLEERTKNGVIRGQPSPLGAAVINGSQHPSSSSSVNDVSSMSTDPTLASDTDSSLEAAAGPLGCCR
panel of more than 300 wild-type and mutant kinases (313 kinase panel) (Homo sapiens, UniProt Q16539), sequence (Q16539 whole entry, change not shown): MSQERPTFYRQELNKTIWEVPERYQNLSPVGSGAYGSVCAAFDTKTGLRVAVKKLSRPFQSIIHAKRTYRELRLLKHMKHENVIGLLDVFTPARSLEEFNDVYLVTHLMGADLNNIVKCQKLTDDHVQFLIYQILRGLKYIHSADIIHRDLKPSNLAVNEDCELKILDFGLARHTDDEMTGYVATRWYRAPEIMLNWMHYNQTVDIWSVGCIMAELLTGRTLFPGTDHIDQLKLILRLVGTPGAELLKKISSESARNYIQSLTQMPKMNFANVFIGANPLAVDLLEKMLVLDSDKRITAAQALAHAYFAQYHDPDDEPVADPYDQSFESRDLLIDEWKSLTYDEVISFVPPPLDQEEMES
panel of more than 300 wild-type and mutant kinases (313 kinase panel) (Homo sapiens, UniProt P30291), sequence (P30291 whole entry, change not shown): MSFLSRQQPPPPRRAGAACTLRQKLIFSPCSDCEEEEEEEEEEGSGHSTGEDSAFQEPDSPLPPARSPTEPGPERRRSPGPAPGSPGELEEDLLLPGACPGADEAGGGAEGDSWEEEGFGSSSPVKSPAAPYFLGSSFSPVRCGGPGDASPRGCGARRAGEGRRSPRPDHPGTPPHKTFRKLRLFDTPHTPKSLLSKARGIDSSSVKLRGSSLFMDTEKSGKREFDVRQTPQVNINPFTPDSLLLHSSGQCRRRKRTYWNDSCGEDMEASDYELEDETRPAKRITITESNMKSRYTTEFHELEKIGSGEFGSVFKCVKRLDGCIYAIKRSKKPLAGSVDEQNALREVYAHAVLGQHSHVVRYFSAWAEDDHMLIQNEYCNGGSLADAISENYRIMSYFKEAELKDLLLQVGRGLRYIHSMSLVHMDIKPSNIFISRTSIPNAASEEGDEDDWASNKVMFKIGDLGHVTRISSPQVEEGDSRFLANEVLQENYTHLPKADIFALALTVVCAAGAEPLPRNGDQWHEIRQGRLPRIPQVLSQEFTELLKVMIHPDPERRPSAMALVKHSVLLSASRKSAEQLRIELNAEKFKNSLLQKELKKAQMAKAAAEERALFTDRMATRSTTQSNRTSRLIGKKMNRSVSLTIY

Structure (SMILES) | %-inhibition of TSSK1 [1] | %-inhibition of HGK [2] | %-inhibition of PKCβ1 [3] | %-inhibition of p38α [4] | %-inhibition of WEE1 [5] | %-inhibition of HER2 [6] | %-inhibition of PBK [7] | %-inhibition, CaMK1δ [8] | %-inhibition of PIM3 [9] | %-inhibition of PDHK4 [10] | %-inhibition of TSSK2 [11] | %-inhibition of DYRK1A [12] | %-inhibition of JNK1 [13] | %-inhibition, CDK5/p25 [14] | %-inhibition of FER [15]
COc1cc2nccc(Oc3ccc(NC(=O)C4(C(=O)Nc5ccc(F)cc5)CC4)cc3)c2cc1OC [cabozantinib] | -1.49% | 21% | 1.48% | 37% | 5.45% | 10% | -4.29% | -1.37% | 0.402% | 3.76% | 0.418% | -5% | -2.85% | -14% | –
Cc1nc(Nc2ncc(C(=O)Nc3c(C)cccc3Cl)s2)cc(N2CCN(CCO)CC2)n1 [dasatinib] | -4.66% | 78% | – | 91% | – | – | – | – | -1.78% | – | – | – | – | 4.63% | –
CC(C)(C)c1nc(-c2cccc(NS(=O)(=O)c3c(F)cccc3F)c2F)c(-c2ccnc(N)n2)s1 [dabrafenib] | 8% | 7% | – | – | 0.651% | 50% | 12% | – | 9% | -1% | -1.73% | 16% | -1.12% | 22% | 22%
Cc1ccc(Nc2nccc(N(C)c3ccc4c(C)n(C)nc4c3)n2)cc1S(N)(=O)=O [pazopanib] | -1.56% | 50% | -4.7% | 10% | 1% | 1.07% | -5% | -1.49% | -4% | -1% | -2.46% | – | – | 9% | 81%
N#CC[C@H](C1CCCC1)n1cc(-c2ncnc3[nH]ccc23)cn1 [ruxolitinib] | 39% | 1.09% | 1.35% | -2.16% | -1.32% | -3.75% | -19% | – | -9% | -6% | -10% | -5% | -3% | -16% | 33%
C[C@@H](Oc1cc(-c2cnn(C3CCNCC3)c2)cnc1N)c1c(Cl)ccc(F)c1Cl [crizotinib] | 21% | – | -3% | -2.27% | 12% | -0.714% | -14% | -4% | -4% | -3.76% | 0.896% | -13% | 0.431% | -8% | –
